Assays:
[1] = system: CTR astrocytes; experiment: Potassium uptake (86Rb) by CTR astrocytes; format: cell-based, human; conditions: CTR glia/astrocytes, 86Rb uptake, 4 lines
Experimental: (§1) Potassium uptake. Astrocytes were plated onto poly-ornithine- and laminin-coated 24-well plates with 30,000 cells/well. For the potassium uptake assay, astrocytes were incubated with ^86Rb (1.0-3.3 μCi/well) for 15 minutes, and then they were washed three time with ice-cold artificial cerebrospinal fluid (aCSF, 500 μL/well). 0.5N NaOH (200 μL/well) was put into each well for cell lysis, which was put into 5 ml cocktail liquid (Ultima Gold, Fisher Scientific, 509050575) and measured by scintillation counter (Beckman Coulter, LS6500), and the results were normalized to both total protein (BCA Protein Assay Kit, Fisher Scientific, 23227) and cell number (Hemocytometer, Fisher Scientific, 02-671-54). The aCSF solution contained (in mM): 124 NaCl, 2.5 KCl, 1.75 NaH2PO4, 2 MgCl2, 2 CaCl2, 0.04 vitamin C, 10 glucose and 26 NaHCO3, pH 7.4.
To address this hypothesis, qPCR was used to confirm whether these K+ channel-associated genes were dysregulated in SCZ glia. […] Next, functional K^+ uptake was assessed directly, in cultured SCZ- and CTR-derived astrocytes. To obtain mature SCZ and CTR astrocyte cultures, CD44− sorted glial progenitors were cultured in base media supplemented with 10% fetal bovine serum (FBS) and 20 ng/ml BMP4 for 4 weeks, so as to potentiate the differentiation of mature, glial fibrillary acidic protein (GFAP)-expressing, fiber-bearing astrocytes (FIGS. 10A-10C). […] Astrocytes from 4 different SCZ and 4 different CTR lines were then incubated with 86Rb, a surrogate monovalent cation for K^+ uptake (Larsen et al., “Contributions of the Na(+)/K(+)-ATPase, NKCC1, and Kir4.1 to Hippocampal K(+) Clearance and Volume Responses,” Glia 62:608-622 (2014), which is hereby incorporated by reference in its entirety), and rubidium uptake measured as a function of both cell number and total protein.

[2] = system: SCZ astrocytes; experiment: Potassium uptake (86Rb) by SCZ astrocytes; format: cell-based, human; conditions: 86Rb uptake, 4 lines
Experimental: as §1, with “The aCSF solution contained (in mM): 124 NaCl, 2.5 KCl, 1.75 NaH2PO4, 2 MgCl2, 2 CaCl2, 0.04 vitamin C, 10 glucose and 26 NaHCO3, pH 7.4.” left out
To address this hypothesis, qPCR was used to confirm whether these K+ channel-associated genes were dysregulated in SCZ glia. […] Next, functional K^+ uptake was assessed directly, in cultured SCZ- and CTR-derived astrocytes. […] Astrocytes from 4 different SCZ and 4 different CTR lines were then incubated with 86Rb, a surrogate monovalent cation for K^+ uptake (Larsen et al., “Contributions of the Na(+)/K(+)-ATPase, NKCC1, and Kir4.1 to Hippocampal K(+) Clearance and Volume Responses,” Glia 62:608-622 (2014), which is hereby incorporated by reference in its entirety), and rubidium uptake measured as a function of both cell number and total protein.

Compound | K+ uptake [1] | K+ uptake [2]
CCCCNc1cc(C(=O)O)cc(S(N)(=O)=O)c1Oc1ccccc1 [bumetanide] | significantly inhibited | neither ouabain nor bumetanide affected
C[C@@H]1O[C@@H](O[C@H]2C[C@@H](O)[C@]3(CO)[C@H]4[C@H](O)C[C@]5(C)[C@@H](C6=CC(=O)OC6)CC[C@]5(O)[C@@H]4CC[C@]3(O)C2)[C@H](O)[C@H](O)[C@H]1O [ouabain] | significantly inhibited | neither ouabain nor bumetanide affected
tertiapin (ALCNCNRIIIPHMCWKKCGKK; UniProt P56587 1-21, looked up) [drug which targets Kir channels] | did not | 
